Counter-ions that a name gives are not always drawn.
Assays:
iNOS [1] = biological target: T1, iNOS (Mus musculus, UniProt P29477); experiment: iNOS enzyme assay, competition experiment I (LEADseeker beads, 14C arginine); type: biochemical, murine; parameters: purchased Cayman Chemical Company 60864; conditions: from dose response curve FIG. 8; 1 hour room temperature; read-out: IC50 (50% inhibition of the enzyme)
Protocol: The preferential capture of arginine compared to citrulline can be utilised in a signal decrease assay. The assay is performed in a 3074 Costar 384 well plate Enzyme (iNOS murine macrophage, recombinant. Cayman catalogue no. 60864, 112 units/ml) is diluted 10 times in assay buffer (1.2 mM NADPH, 3.6 mM DTT, 4.8 uM FAD, 4.8 uM FMN, 4.8 uM biopterin in 50 mM TRIS pH 7.5. Diluted enzyme (10 μl) is incubated with 1.5 μl inhibitor/agonist dissolved in 100% DMSO along with 10 μl ^14C arginine tracer (APBiotech, CFB63, 300 mCi/mMol stock solution diluted in assay buffer to 100,000-150,000 cpm in 10 μl) for 1 hour at room temperature, protected from light. 10 μl LEADseeker beads suspended in a “stop” solution (360 μM aminoguanidine, 20 mM EDTA, pH 8) to 100 mg/ml (i.e 10 μl=1 mg/well) are added and the mixture incubated at room temperature for at least 2 hours. Control reactions were carried out by replacing the inhibitor with 1.5 μl water. The results are read by counting in LEADseeker™ (binning at 2×2, Q coincidence and imaged for 5 mins).
The baseline was determined using 1.5 μl 1 mM aminoguanidine (final concentration 70 μM) and maximum response using 1.5 μl 30 mM aminoguanidine (final concentration).

iNOS [2] = biological target: T1, iNOS; experiment: iNOS SPA enzyme assay, effect of solvents; type: biochemical, murine; parameters: purchased Cayman Chemical Company 60864; conditions: for Time (mins) cpm, 0: 0 min; for Time (mins) cpm, 5: 5 min; for Time (mins) cpm, 10: 10 min; for Time (mins) cpm, 20: 20 min; for % change in ratio: versus water
Protocol: The effect of using different solvents to dissolve test inhibitor compounds was tested, using the assay conditions as described in Example 4 above. […] Appropriate ‘experimental controls’ should therefore be used in all experiments.

iNOS [3] = biological target: T1, iNOS; experiment: biochemical
Protocol: Reaction conditions and data measurement were as described in Example 3 above, using 10 μl of iNOS (Cayman Chemical Company, Catalogue Number 60864) enzyme equivalent to 0.038 units/well.
The assay conditions were as described in Example 4 above employing a range of inhibitor concentrations.

Compound | IC50 (iNOS [1]) | Ratio Time 0/20 mins (iNOS [2]; 1% solvent) | Time (mins) cpm, 0 (iNOS [2]; 1% solvent) | Time (mins) cpm, 5 (iNOS [2]; 1% solvent) | Time (mins) cpm, 10 (iNOS [2]; 1% solvent) | Time (mins) cpm, 20 (iNOS [2]; 1% solvent) | Ratio Time 0/20 mins (iNOS [2]; 5% solvent) | Time (mins) cpm, 0 (iNOS [2]; 5% solvent) | Time (mins) cpm, 5 (iNOS [2]; 5% solvent) | Time (mins) cpm, 10 (iNOS [2]; 5% solvent) | Time (mins) cpm, 20 (iNOS [2]; 5% solvent) | Ratio Time 0/20 mins (iNOS [2]; 10% solvent) | Time (mins) cpm, 0 (iNOS [2]; 10% solvent) | Time (mins) cpm, 5 (iNOS [2]; 10% solvent) | Time (mins) cpm, 10 (iNOS [2]; 10% solvent) | Time (mins) cpm, 20 (iNOS [2]; 10% solvent) | % change in ratio (iNOS [2]; 10% solvent) | % change in ratio (iNOS [2]; 1% solvent) | % change in ratio (iNOS [2]; 5% solvent) | IC50 (iNOS [3])
N=C(N)NN [aminoguanidine] | ~500 µM |  |  |  |  |  |  |  |  |  |  |  |  |  |  |  |  |  |  | 
CO [methanol] |  | 7.56 | 14914 cpm | 8639 cpm | 4989 cpm | 1973 cpm | 7.13 | 15317 cpm | 7939 cpm | 5466 cpm | 2147 cpm | 6.32 | 12488 cpm | 6631 cpm | 4698 cpm | 1975 cpm | 10% |  |  | 
C[S+](C)[O-] [DMSO] |  | 6.39 | 10324 cpm | 7128 cpm | 4330 cpm | 1615 cpm | 5.12 | 8530 cpm | 4166 cpm | 4453 cpm | 1665 cpm | 3.10 | 6630 cpm | 3884 cpm | 3666 cpm | 2138 cpm | 56% | 10% | 28% | 
CCO [ethanol] |  | 6.57 | 13409 cpm | 9004 cpm | 5580 cpm | 2040 cpm | 4.19 | 13248 cpm | 7465 cpm | 6596 cpm | 3161 cpm | 3.23 | 12008 cpm | 6316 cpm | 5987 cpm | 3715 cpm | 54% | 8% | 41% | 
CCSC(=N)N [SEITU, 2-ethyl-2-thiopseudourea hydrobromide] |  |  |  |  |  |  |  |  |  |  |  |  |  |  |  |  |  |  |  | 0.032 µM
CC(C)=O [acetone] |  | 6.54 | 12884 cpm | 8509 cpm | 5169 cpm | 1971 cpm | 4.78 | 12431 cpm | 8409 cpm | 6708 cpm | 2601 cpm | 3.19 | 10201 cpm | 6255 cpm | 6464 cpm | 3193 cpm | 55% | 8% | 33% | 

— patent publication US7264921B2, “No synthase assay particles and method” (GE Healthcare UK Limited, priority 2001, dated 2007)
